Assay results: BindingDB's records for doi:10.7270/Q2WS8RVZ (Burnham Center For Chemical Genomics, 2012)

molecular target: Endothelial PAS domain-containing protein 1 (Homo sapiens, UniProt Q99814)
Sequence (Q99814 whole entry, the tested form may be a part): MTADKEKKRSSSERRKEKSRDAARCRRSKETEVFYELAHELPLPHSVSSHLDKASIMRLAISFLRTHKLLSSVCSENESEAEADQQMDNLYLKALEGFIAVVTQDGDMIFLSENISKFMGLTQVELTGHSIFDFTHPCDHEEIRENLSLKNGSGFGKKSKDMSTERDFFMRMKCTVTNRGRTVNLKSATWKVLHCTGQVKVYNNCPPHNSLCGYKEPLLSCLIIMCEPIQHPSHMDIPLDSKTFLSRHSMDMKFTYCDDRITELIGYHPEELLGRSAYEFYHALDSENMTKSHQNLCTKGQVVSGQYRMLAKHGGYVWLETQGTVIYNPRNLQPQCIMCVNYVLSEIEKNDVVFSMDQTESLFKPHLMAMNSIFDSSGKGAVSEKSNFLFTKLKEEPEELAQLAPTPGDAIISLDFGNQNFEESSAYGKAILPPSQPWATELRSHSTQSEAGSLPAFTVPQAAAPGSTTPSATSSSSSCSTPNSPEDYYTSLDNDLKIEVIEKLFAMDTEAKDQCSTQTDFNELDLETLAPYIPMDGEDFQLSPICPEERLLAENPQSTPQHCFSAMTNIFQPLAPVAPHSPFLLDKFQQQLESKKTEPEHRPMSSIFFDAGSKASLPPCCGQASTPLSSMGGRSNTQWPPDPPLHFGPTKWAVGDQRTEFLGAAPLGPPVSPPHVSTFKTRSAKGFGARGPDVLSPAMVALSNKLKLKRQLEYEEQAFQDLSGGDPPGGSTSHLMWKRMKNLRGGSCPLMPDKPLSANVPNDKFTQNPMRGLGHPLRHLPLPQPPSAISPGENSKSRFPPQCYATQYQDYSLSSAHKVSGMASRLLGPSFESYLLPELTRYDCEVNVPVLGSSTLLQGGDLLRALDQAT

| SMILES | IC50 [µM] |
| --- | --- |
| Cc1ccc(CN=Nc2cccc(C(=O)O)c2)s1 | 64.5 |
| CC(C)(C)c1ccc(CN=Nc2ccc(C(=O)O)cc2)cc1 | 49.6 |
| O=C(O)c1ccc(N=NCc2ccc3ncccc3c2)cc1 | 64.5 |
| Cc1nn(-c2ccccc2Cl)c(Cl)c1CN=Nc1cccc(C(=O)O)c1 [3-[2-[[5-chloro-1-(2-chlorophenyl)-3-methylpyrazol-4-yl]methylidene]hydrazinyl]benzoic acid] | 23.9 |
| CCOc1cc(CN=Nc2cccc(C(=O)O)c2)ccc1OC(=O)c1ccccc1 [3-[(N''E)-N''-(4-benzoyloxy-3-ethoxy-benzylidene)hydrazino]benzoic acid] | 4.22 |
| CSc1ccc(CN=Nc2cccc(C(=O)O)c2)cc1 [3-[(N'E)-N'-[4-(methylthio)benzylidene]hydrazino]benzoic acid] | 5.33 |
| COc1cc(CN=O)ccc1OCc1ccc(C(=O)O)cc1 [4-[[4-(hydroximinomethyl)-2-methoxy-phenoxy]methyl]benzoic acid] | 4.29 |
| O=C(O)c1cc(N=NCc2ccc3c(c2)OCCO3)ccc1Cl [SMR000242957] | 5.03 |
| COc1cccc(C/N=N/c2ncccc2[N+](=O)[O-])c1OC [SMR000461041] | 8.21 |
| c1ccc(CN=Nc2ccc3ccccc3n2)nc1 [SMR002048648] | 5.57 |

Second part, the compound after the results:

| IC50 [µM] | SMILES |
| --- | --- |
| 64.5 | Cc1nn(-c2ccccc2)c(Cl)c1CN=Nc1ccc(Cl)c(C(=O)O)c1 [2-chloro-5-[2-[(5-chloro-3-methyl-1-phenylpyrazol-4-yl)methylidene]hydrazinyl]benzoic acid] |
| 5.74 | O=C(O)c1cccc(N=NCc2cccs2)c1 [3-[(N'E)-N'-(2-thenylidene)hydrazino]benzoic acid] |
| 4.08 | CC(C)c1ccc(CN=Nc2ccc(C(=O)O)cc2)cc1 [4-[2-[(4-propan-2-ylphenyl)methylidene]hydrazinyl]benzoic acid] |
| 49.6 | CCOC(=O)Cc1csc(N=NCc2ccc(C(F)(F)F)cc2)n1 [ethyl 2-[2-[(2E)-2-[[4-(trifluoromethyl)phenyl]methylidene]hydrazinyl]-1,3-thiazol-4-yl]ethanoate] |
| 9.84 | O=C(O)c1ccc(N=NCc2ccc(C(F)(F)F)cc2)cc1 [sulfuric acid;4-[(N'E)-N'-[4-(trifluoromethyl)benzylidene]hydrazino]benzoic acid] |
